According to article PMC4297543 (Bioorganic & medicinal chemistry letters, 2014):

Biological target: recombinant β-secretase (Homo sapiens, UniProt P56817)
Assay: β-secretase
Type: biochemical

recombinant β-secretase, sequence (P56817 46-501): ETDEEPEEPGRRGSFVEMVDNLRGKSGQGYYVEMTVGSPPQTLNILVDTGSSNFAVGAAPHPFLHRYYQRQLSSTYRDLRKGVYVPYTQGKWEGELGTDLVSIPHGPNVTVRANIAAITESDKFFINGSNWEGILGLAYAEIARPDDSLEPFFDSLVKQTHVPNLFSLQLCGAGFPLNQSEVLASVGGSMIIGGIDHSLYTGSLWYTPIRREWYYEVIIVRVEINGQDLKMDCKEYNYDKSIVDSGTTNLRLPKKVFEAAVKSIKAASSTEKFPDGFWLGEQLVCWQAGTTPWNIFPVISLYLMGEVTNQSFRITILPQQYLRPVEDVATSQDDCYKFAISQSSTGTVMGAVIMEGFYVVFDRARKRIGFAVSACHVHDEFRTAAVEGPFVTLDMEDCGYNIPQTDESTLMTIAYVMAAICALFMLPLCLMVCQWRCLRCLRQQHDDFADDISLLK

Row | SMILES | drop in potency with respect to 3a (ratio of BACE1 Ki to that of 3a) | improvement over inhibitor 4a (ratio of BACE1 potency to that of 4a)
1 | Cc1cc(C)n(C[C@@H](C)C(=O)N[C@@H](CNC(=O)OC(C)(C)C)C(=O)N[C@@H](CC(C)C)[C@@H](O)C[C@@H](C)C(=O)N[C@H](C(=O)NCC(C)C)C(C)C)n1 [Inhibitor 3b] | ~40 fold | 
2 | Cc1csc(C[C@H](C)C(=O)N[C@@H](CNC(=O)OC(C)(C)C)C(=O)N[C@@H](CC(C)C)[C@@H](O)C[C@@H](C)C(=O)N[C@H](C(=O)NCC(C)C)C(C)C)n1 [Inhibitor 4c] |  | over 120 fold
